Data set [1] can be described thus: Subacute study of intravenously administered CX-3543 in rats (safety and tolerance). The class given is in vivo. As for the experimental part:
This study determines the safety and tolerance of CX-3543 at three dose levels administered intravenously once daily to rats for five consecutive days. Safety parameters will be monitored through observation, clinical pathology, and microscopic histopathology assessments. Selected animals will also undergo blood sample collection for pharmacokinetic/toxicokinetic evaluation.
The study was conducted using three (3) test and one (1) control article groups. The high and low test article groups and the control group consisted of 28 animals each and were used to assess tolerance. The medium test article group consisted of 64 animals of which 28 animals were used to assess tolerance and 36 animals were used to determine the level of test article in the blood at various time points after the first and fifth doses in the PK/TK portion of the study. The control article was the solution (5% dextrose in water; D5W) used to dilute the test article prior to administration and was administered at the same volume as the high dose test article group. The test article dosage levels for this study were 24, 7.6, and 2.4 mg/kg. Test and control articles were administered by intravenous (IV) injection into a tail vein over one minute on five consecutive days.
Blood samples for test article blood level analysis were taken as follows. […]

For another data set, the system named is p53 (total). Kind of data set: p53 (total) ELISA in HCT-116 cells. It counts as cell-based. The settings on record: 24 hr, 1-5 uM. Here is the method: The protocol for this assay is described as follows. On Day 1, cells were seeded at 2×10^6 cells/10 cm dish/10 mL medium. On day two, cells were treated as follows: control=0.05% DMSO (5 μl DMSO stock/10 ml medium); 1 μM CX3543 (1 μl Stock (10 mM)/10 ml medium); 2 μM CX3543 (2 μl Stock (10 mM)/10 ml medium); 3 μM CX3543 (3 μl Stock (10 mM)/10 ml medium); 4 μM CX3543 (4 μl Stock (10 mM)/10 ml medium) and 5 μM CX3543 (5 μl Stock (10 mM)/10 ml medium).
On Day 3, cells were harvested and attached and floating cells were collected. Cells were washed twice with PBS, counted and collected at 4×10^6 cells/sample. The cell pellet was frozen at −80° C. until further use. […]
Test Procedure. […] After washing, the plate is inverted and tapped dry on absorbance tissue. […]
Wash wells with 400 μl working wash buffer four times. […] After washing, the plate is inverted and tapped try on absorbance tissue. […] After washing, the plate is inverted and tapped try on absorbance tissue. […] Read the plate at A450 nm by setting chromogen blank (=100 μl TMB+100 μl Stop soln) as blank. Read absorbance within 2 hours of assay completion.
(In general: An ELISA detects its analyte on a solid surface through an enzyme-linked reagent.)

The test system of data set [2] is caspase-3 activation in HCT-116. Kind of data set: Caspase-3/7 assay. The settings on record: HCT-116 cells, 24 hr, 1, 3 and 5 uM. The class given is cell-based. Here is the method: The following protocol was followed (24 hr). On Day 1, seed 0.015×10^6 HCT-116 cells/50 ul/well. Incubate o/n in 37° C. CO2 incubator. On Day 2, remove 25 ul of medium from wells. Treat HCT-116 cells with 1, 3, 5 uM CX-3543. Treat positive control group with Staurosporin 0.01, 0.1, 1 uM. Keep six negative control wells treated with medium only (add 25 ul of diluted sample to appropriate wells). Incubate for 24 h at 37° C. in a CO2 incubator. On Day 3, prepare Apo-ONE Homogeneous Caspase-3/7 assay reagent (Promega) at 10 ul reagent/1 ml buffer. Add 50 ul of diluted reagent. Incubate one hour at room temp. Measure fluorescence at 485/520.

Each structure is given as a SMILES string.

The values that follow come from patent US7507727B2, “Substituted quinobenzoxazine analogs and methods of using thereof” (Cylene Pharmaceuticals, Inc., priority 2003, dated 2009).

As for `CN1CCCC1CCNC(=O)c1cn2c3c(c(N4CCC(c5cnccn5)C4)c(F)cc3c1=O)Oc1cc3ccccc3cc1-2` (stereo not shown) [CX-3543], the tolerance entry in data set [1] (five consecutive daily IV doses, mid- and low-dose levels (7.6 and 2.4 mg/kg)) is “toxicologically well tolerated”. Moreover, the mortality result in data set [1] (high dose animals (24 mg/kg), five day course) is “approximately 5%”. In addition, the “population of the protein p53 (total)” value in the data set with p53 (total) is “enhanced”. Also, the caspase-3 levels entry in data set [2] is recorded as “dose responsive increase”.
